# Patent US20210318318A1, “Kinase Activity In Tumors” (Institute For Cancer Research d/b/a The Research Institute …, priority 2018, published 2021)
# Tests used:
# [1] = test system: FAK1, MLC and Paxillin phosphorylation; FAK1 and CHEK1 protein levels; test: Western blot of signaling in inhibitor-treated HGSOC cells; format: cell-based, human; conditions: HGSOC (COV362) cells, increasing doses 0.5, 1 or 3 μM, 48 hours
# Experimental: COV362 cells were treated with 0.5, 1 or 3 μM of A-674563 or SB-772077 for 48 hours and signaling monitored by western blot.
# Samples were harvested in MIB lysis buffer, subjected to SDS-PAGE […] and transferred to PVDF membranes before western blotting with primary antibodies. For pMYPT and pMLC blots, cells were harvested in a buffer containing 1% (w/v) SDS, 50 mM Tris pH 7.5 supplemented with protease and phosphatase inhibitors buffer and were passed through QIAshredder columns (Qiagen, 79654), (Unbekandt et al., Cell Commun. Signal., 2014, 12, 54). For the list of primary antibodies used, see Table 4. Secondary HRP-anti-rabbit and HRP-anti-mouse were obtained from ThermoFisher Scientific. SuperSignal West Pico and Femto Chemiluminescent Substrates (Thermo) were used to visualize blots.
# ROCK1 = target: T1, ROCK1 (Homo sapiens, UniProt Q13464); test: MIB/MS kinome profiling of inhibitor-treated OVSAHO cells; format: cell-based; conditions: 2 μM, 4 hours
# T1 construct: endogenous in cells; host or cells: OVSAHO
# T1 sequence (Q13464 whole entry): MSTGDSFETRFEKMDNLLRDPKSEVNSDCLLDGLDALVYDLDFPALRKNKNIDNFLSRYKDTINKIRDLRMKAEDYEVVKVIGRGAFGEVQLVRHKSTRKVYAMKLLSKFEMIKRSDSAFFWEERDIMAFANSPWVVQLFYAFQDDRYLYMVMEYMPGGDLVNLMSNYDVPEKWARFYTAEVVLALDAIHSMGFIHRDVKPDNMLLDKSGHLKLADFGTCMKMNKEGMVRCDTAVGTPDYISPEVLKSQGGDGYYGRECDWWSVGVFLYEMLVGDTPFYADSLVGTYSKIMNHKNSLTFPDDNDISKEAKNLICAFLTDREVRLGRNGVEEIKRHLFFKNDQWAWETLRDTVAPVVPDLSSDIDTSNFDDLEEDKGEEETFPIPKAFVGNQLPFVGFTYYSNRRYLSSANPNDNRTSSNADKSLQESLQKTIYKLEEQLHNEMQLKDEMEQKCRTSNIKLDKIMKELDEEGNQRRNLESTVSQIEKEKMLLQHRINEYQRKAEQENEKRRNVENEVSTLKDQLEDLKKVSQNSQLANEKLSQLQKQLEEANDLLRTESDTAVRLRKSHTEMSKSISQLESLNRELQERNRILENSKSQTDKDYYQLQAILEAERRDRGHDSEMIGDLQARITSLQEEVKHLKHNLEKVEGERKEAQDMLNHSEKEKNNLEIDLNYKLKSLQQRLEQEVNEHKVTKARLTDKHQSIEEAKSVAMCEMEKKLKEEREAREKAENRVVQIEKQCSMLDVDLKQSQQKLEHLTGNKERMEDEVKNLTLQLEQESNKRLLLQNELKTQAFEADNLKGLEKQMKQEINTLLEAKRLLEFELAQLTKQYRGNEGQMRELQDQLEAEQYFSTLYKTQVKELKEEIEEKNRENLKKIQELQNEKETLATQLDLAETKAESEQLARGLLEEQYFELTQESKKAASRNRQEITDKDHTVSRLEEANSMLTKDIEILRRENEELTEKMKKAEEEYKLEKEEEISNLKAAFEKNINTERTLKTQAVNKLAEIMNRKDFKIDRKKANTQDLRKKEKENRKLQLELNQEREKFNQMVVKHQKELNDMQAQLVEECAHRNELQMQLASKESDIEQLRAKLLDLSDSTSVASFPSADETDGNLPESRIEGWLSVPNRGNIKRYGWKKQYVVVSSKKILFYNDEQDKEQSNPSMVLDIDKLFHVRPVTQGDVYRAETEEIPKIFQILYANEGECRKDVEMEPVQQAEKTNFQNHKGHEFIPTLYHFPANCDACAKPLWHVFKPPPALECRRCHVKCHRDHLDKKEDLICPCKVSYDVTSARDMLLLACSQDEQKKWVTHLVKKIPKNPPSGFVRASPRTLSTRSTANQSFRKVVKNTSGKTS
# Experimental: (§1) OVSAHO cells were treated with 2 μM of inhibitor for 4 hours and analyzed by MIB/MS. Scatterplot depicts difference in kinase MIB-binding of drug treated relative to control DMSO as determined by Students T-test.
# Scatter plot depicts statistical differences in MIB-binding as a ratio of inhibitor/DMSO. Cells were treated with inhibitors at a dose of 2 μM and subjected to MIB/MS. Changes in MIB-binding were quantified using label free quantitation. Data presented in (A) are triplicate experiments SEM. *p≤0.05 by student's t-test.
# (§2) MIB-based kinome profiling was performed on several of these molecules in HGSOC cells to determine kinome-wide inhibition profiles.
# Experiments using MIB/MS were performed as previously described (Duncan et al., Cell, 2012, 149, 307-321; and Kurimchak et al., Cell Reports, 2016, 16, 1273-1286). […] Protein concentrations were determined by BCA analysis (Thermo). […] An equal amount of the HKS was added to the non-labeled sample (cell, tumor or normal tissue) providing a quantitative strategy to compare kinome activity/levels across samples, amongst treatments and, importantly, across time. […]
# MRCKB = target: T2, MRCKB (Homo sapiens, UniProt Q9Y5S2); test: as above; format: cell-based; conditions: 2 μM, 4 hour treatment
# T2 construct: endogenous in cells; host or cells: OVSAHO
# T2 sequence (Q9Y5S2 whole entry): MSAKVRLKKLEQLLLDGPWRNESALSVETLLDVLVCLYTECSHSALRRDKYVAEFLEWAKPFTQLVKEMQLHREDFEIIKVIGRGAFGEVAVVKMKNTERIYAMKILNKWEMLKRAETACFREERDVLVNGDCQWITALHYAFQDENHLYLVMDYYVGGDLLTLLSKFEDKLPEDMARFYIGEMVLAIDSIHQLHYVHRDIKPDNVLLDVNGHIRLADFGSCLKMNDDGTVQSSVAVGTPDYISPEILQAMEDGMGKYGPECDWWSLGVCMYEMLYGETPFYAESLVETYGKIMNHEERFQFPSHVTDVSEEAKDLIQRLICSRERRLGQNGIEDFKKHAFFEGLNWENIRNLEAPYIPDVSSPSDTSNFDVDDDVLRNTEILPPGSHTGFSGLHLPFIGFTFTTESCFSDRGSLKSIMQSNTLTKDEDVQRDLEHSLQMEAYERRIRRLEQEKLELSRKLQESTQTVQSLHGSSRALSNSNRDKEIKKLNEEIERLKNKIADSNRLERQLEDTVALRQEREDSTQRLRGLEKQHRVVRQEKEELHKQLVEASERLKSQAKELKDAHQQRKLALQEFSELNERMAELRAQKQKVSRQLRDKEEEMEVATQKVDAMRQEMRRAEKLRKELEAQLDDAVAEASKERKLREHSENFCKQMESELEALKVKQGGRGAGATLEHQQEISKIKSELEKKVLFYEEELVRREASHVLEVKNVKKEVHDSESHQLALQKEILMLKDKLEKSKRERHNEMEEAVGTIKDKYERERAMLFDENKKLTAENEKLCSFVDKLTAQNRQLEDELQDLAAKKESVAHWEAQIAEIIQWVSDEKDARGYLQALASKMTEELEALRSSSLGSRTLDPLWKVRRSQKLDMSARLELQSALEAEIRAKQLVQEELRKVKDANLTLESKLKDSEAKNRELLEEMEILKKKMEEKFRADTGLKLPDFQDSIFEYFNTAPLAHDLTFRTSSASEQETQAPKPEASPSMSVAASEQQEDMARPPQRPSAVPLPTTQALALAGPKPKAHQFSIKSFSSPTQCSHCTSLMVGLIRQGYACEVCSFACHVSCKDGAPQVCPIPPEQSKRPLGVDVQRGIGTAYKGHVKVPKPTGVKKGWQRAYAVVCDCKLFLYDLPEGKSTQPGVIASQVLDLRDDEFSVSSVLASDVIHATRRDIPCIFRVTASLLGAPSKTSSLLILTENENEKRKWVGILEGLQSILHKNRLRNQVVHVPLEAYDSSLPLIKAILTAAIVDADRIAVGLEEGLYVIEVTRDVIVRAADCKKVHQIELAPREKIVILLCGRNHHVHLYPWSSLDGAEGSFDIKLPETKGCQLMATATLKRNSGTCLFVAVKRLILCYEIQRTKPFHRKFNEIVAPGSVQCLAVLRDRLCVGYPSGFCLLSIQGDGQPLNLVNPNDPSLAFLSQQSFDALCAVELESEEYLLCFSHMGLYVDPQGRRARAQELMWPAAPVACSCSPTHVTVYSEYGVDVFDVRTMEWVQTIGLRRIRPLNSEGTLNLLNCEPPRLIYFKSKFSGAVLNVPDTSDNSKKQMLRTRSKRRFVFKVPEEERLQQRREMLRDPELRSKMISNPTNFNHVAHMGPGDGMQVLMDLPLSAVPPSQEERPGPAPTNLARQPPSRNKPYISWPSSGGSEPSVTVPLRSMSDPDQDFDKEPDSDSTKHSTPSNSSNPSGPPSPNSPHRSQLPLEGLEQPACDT
# Experimental: (§3) OVSAHO cells were treated with inhibitors at a dose of 2 μM for 4 hours and kinase inhibition profiles determined by MIB/MS. Bar graph depicts % of kinase bound to MIBs relative to DMSO control as determined by label free quantitation.
# as §1, §2
# (§4) Experiments using MIB/MS were performed as previously described (Duncan et al., Cell, 2012, 149, 307-321; and Kurimchak et al., Cell Reports, 2016, 16, 1273-1286). Briefly, cells or tumors were lysed on ice in buffer containing 50 mM HEPES (pH 7.5), 0.5% Triton X-100, 150 mM NaCl, 1 mM EDTA, 1 mM EGTA, 10 mM sodium fluoride, 2.5 mM sodium orthovanadate, 1× protease inhibitor cocktail (Roche), and 1% each of phosphatase inhibitor cocktails 2 and 3 (Sigma). Particulate was removed by centrifugation of lysates at 13,000 rpm for 10 minutes at 4° C. and filtration through 0.2 μm syringe filters. Protein concentrations were determined by BCA analysis (Thermo). To compare kinome signatures within and across such large sample sizes, a super-SILAC method was designed (Neubert et al., Nat. Meth., 2010, 7, 361-362) consisting of a cocktail of cancer cell lines that encompasses the activity of the “cancer kinome” to be used as a control for individual samples. Five cancer cell lines were selected from the NCI-60 panel (UACC257, MOLT4, COL0205, ACHN and PC3) that differed in their origin, gene expression patterns and mutation status. The cancer cell lines were labeled using SILAC and mixed equally providing a diverse SILAC ([^13C6,^15N4] arginine (Arg^10) and […] (Lys^8)) heavy kinome reference standard (HKS) to be used repeatedly in kinome profiling assays. An equal amount of the HKS was added to the non-labeled sample (cell, tumor or normal tissue) providing a quantitative strategy to compare kinome activity/levels across samples, amongst treatments and, importantly, across time. […]
# (§5) Proteolytic peptides were resuspended in 0.1% formic acid and separated with a Thermo RSLC Ultimate 3000 on a Thermo Easy-Spray C18 PepMap 75 μm×50 cm C-18 2 μm column with a 240 minute gradient of 4-25% acetonitrile with 0.1% formic acid at 300 nL/min and 50° C. Eluted peptides were analyzed by a Thermo Q Exactive plus mass spectrometer utilizing a top 15 methodology in which the 15 most intense peptide precursor ions were subjected to fragmentation.
# ROCK2 = target: T3, ROCK2 (Homo sapiens, UniProt O75116); test: as above; format: cell-based; conditions: 2 μM, 4 hours
# T3 construct: endogenous in cells; host or cells: OVSAHO
# Experimental: as §1, §2
# Experiments using MIB/MS were performed as previously described (Duncan et al., Cell, 2012, 149, 307-321; and Kurimchak et al., Cell Reports, 2016, 16, 1273-1286). Briefly, cells or tumors were lysed on ice in buffer containing 50 mM HEPES (pH 7.5), 0.5% Triton X-100, 150 mM NaCl, 1 mM EDTA, 1 mM EGTA, 10 mM sodium fluoride, 2.5 mM sodium orthovanadate, 1× protease inhibitor cocktail (Roche), and 1% each of phosphatase inhibitor cocktails 2 and 3 (Sigma). Particulate was removed by centrifugation of lysates at 13,000 rpm for 10 minutes at 4° C. and filtration through 0.2 μm syringe filters. Protein concentrations were determined by BCA analysis (Thermo). To compare kinome signatures within and across such large sample sizes, a super-SILAC method was designed (Neubert et al., Nat. Meth., 2010, 7, 361-362) consisting of a cocktail of cancer cell lines that encompasses the activity of the “cancer kinome” to be used as a control for individual samples. […] An equal amount of the HKS was added to the non-labeled sample (cell, tumor or normal tissue) providing a quantitative strategy to compare kinome activity/levels across samples, amongst treatments and, importantly, across time. […]
# as §5
# MRCKA = MRCKA (Homo sapiens, UniProt Q5VT25); test: as above; format: cell-based; design: endogenous in cells; host or cells: OVSAHO; conditions: 2 μM, 4 hour treatment
# Sequence of MRCKA (Q5VT25 whole entry): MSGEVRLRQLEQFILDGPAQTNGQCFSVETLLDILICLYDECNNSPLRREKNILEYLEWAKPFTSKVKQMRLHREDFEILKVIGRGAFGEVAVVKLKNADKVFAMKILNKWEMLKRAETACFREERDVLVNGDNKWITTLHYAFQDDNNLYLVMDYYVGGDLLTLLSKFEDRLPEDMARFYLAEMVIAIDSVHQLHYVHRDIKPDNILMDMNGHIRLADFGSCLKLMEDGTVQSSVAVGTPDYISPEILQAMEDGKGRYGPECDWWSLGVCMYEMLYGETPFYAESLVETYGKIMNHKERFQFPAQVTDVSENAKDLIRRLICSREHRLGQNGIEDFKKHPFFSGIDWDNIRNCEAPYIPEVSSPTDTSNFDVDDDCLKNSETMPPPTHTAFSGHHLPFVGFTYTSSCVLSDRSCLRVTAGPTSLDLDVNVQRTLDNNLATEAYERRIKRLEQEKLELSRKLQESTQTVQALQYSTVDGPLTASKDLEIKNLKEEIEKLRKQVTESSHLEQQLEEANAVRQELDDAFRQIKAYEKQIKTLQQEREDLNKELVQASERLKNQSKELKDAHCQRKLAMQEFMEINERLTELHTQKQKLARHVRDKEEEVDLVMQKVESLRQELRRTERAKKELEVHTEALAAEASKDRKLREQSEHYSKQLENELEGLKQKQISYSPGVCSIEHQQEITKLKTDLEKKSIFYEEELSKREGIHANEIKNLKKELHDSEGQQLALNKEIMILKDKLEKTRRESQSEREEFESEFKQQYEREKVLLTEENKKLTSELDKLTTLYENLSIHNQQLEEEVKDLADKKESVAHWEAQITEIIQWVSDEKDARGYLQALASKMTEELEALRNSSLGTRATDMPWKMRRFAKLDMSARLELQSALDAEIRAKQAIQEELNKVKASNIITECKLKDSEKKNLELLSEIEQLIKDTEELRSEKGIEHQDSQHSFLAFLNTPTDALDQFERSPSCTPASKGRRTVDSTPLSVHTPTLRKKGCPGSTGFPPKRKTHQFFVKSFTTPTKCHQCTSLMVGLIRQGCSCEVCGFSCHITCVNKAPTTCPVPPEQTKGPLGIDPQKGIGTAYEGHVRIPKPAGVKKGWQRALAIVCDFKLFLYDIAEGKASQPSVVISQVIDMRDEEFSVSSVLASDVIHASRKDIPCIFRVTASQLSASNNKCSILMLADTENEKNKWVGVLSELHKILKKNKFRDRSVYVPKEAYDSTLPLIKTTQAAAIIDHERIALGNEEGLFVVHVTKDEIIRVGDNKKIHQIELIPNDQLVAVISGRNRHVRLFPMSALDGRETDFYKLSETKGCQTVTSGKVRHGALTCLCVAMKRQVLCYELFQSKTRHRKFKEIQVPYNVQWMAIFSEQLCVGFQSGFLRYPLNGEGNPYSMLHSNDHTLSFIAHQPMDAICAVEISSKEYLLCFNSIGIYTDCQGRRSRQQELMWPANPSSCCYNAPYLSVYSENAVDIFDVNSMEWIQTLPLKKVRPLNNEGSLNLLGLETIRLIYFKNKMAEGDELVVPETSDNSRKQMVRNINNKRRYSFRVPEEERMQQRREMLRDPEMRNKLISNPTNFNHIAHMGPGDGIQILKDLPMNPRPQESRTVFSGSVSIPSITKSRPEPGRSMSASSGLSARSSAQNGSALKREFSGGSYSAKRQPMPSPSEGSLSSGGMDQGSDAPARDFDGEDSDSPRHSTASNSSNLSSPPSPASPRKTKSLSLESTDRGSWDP
# Experimental: as §3, §1, §2, §4, §5
# [2] = test system: carboplatin-resistant COV362 cells; test: Carboplatin response in cells depleted of MRCKA by siRNA; format: cell-based, human
# Experimental: (§6) Cells transfected with control or MRKCA siRNAs were treated with increasing doses of carboplatin. Cell viability was assessed by Cell Titer Glo according to manufacturer's instructions. Data represent the mean of six replicates. GR50 were determined using PRISM.
# (§7) To explore if blocking dark kinases AAK1, STK38 or MRCKA activity in combination with current therapies improves drug efficacy, OVCAR4 cells depleted of AAK1, STK38 or MRCKA were treated with increasing doses of carboplatin, olaparib, JQ1, or a variety of kinase inhibitors in clinical trials for HGSOC.
# siRNA transfections were performed using 25 nM siRNA duplex and the reverse transfection protocol. 3000-5000 cells per well were added to 96 well plates with media containing the siRNA and transfection reagent (Lipofectamine RNAiMax) according to the manufacturer's instructions. In experiments where inhibitors were used, the inhibitor was added at the time of transfection. Cells were allowed to grow for 72-120 hours post-transfection prior to CellTiter Glo (Promega) analysis. Two-to-three independent experiments were performed with each cell line and siRNA. Students t tests were performed for statistical analyses and p values ≤0.05 were considered significant. […]
# OVCAR4 cells = test: Drug growth inhibition in cells depleted of dark kinases by siRNA (Cell Titer Glo); format: cell-based, human; conditions: increasing doses of drug
# Experimental: OVCAR4 cells were transfected with control nontargeting or dark kinase siRNAs and treated with escalating doses of appropriate drugs.
# as §7
# (§8) siRNA transfections were performed using 25 nM siRNA duplex and the reverse transfection protocol. 3000-5000 cells per well were added to 96 well plates with media containing the siRNA and transfection reagent (Lipofectamine RNAiMax) according to the manufacturer's instructions. In experiments where inhibitors were used, the inhibitor was added at the time of transfection. Cells were allowed to grow for 72-120 hours post-transfection prior to CellTiter Glo (Promega) analysis. Two-to-three independent experiments were performed with each cell line and siRNA. Students t tests were performed for statistical analyses and p values ≤0.05 were considered significant. For western blot studies, the same procedure was performed with volumes and cell numbers proportionally scaled to a 60 mm or 10 cm dish, and cells were collected 24-72 hours post-transfection. siRNA product numbers and manufacturers are listed in Table 5.
# HGSOC cells = test: Drug response in cells depleted of MRCKA by siRNA (Cell Titer Glo, cleaved PARP blots); format: cell-based, human
# Experimental: as §6
# Cells transfected with control or MRKCA siRNAs were treated with increasing doses of olaparib. Cell viability was assessed by Cell Titer Glo according to manufacturer's instructions. Data represent the mean of six replicates. GR50 were determined using PRISM.
# as §7, §8
MIB-binding of ROCK1 (ROCK1),MIB-binding of MRCKB relative to DMSO (MRCKB),MIB-binding of ROCK2 (ROCK2),MIB-binding of MRCKA relative to DMSO (MRCKA),Compound,"FAK1, MLC and Paxillin phosphorylation [1]","cell growth and apoptosis, MRCKA knockdown in combination with drug [2]",growth inhibition by drug with MRCKA knockdown relative to non-targeting control siRNA (OVCAR4 cells),apoptosis (cleaved PARP) of drug plus MRCKA depletion (HGSOC cells; HGSOC cell lines),"effect of drug on cell viability with MRCKA depletion (HGSOC cells; additional HGSOC cell lines, increasing doses)"
reduction in MIB-binding,,,,O=C(NCc1cccc(O)c1)Nc1nc(-c2ccncc2)cs1 [RKI-1447],reduced,,,,
reduction in MIB-binding,Reduced MIB-binding,reduction in MIB-binding,Reduced MIB-binding,CC1=C(C(=O)Nc2cc(Cl)c3[nH]ncc3c2)C(c2ccc(C(F)(F)F)cc2)CC(=O)N1 (stereo not shown) [GSK466317A],reduced,,,,
,no effect,,no effect,Fc1ccc(Cl)cc1-c1nc(Nc2ccncc2)c2nccnc2n1 [SD-208],,,,,
,,,,N.N.O=C([O-])C1(C(=O)[O-])CCC1.[Pt+2] [carboplatin],,inhibited cell growth and induced apoptosis,enhanced growth inhibition,induced apoptosis better than individual therapies,enhanced the effect of carboplatin
